Where “and” joins values, the source holds several entries; their conditions need not be identical. Equal entries are not always repeated.
System: HT1080 cells
Assay: NMR quantification of cellular metabolites; for 1-Methylnicotinamide (NMR metabolite level): unit not given here; for Acetic acid (NMR metabolite level): unit not given here; for Glutathione (NMR metabolite level): unit not given here; for Glycerol 3-phosphate (NMR metabolite level): unit not given here; for Glycine (NMR metabolite level): unit not given here; for L-Lactic acid (NMR metabolite level): unit not given here; for L-Lysine (NMR metabolite level): unit not given here; for L-Tyrosine (NMR metabolite level): unit not given here; for L-Valine (NMR metabolite level): unit not given here; for Phosphocreatine (NMR metabolite level): unit not given here; for Pyroglutamate (NMR metabolite level): unit not given here; for Taurine (NMR metabolite level): unit not given here; for Tryptophan (NMR metabolite level): unit not given here
Format: cell-based, human

O=C(Nc1ccccc1C(=O)O)c1ccc(Oc2ccc(C(=O)Nc3ccccc3C(=O)O)cc2)cc1 [CP1]
change of acetate levels (HT1080 cells, 3 h, 33 µM CP1): −42%
change of alanine levels (HT1080 cells, 3 h, 33 µM CP1): −52%
change of lactate levels (HT1080 cells, 3 h, 33 µM CP1): −45%
change of pyruvate levels (HT1080 cells, 3 h, 33 µM CP1): −10%
1-Methylnicotinamide (NMR metabolite level) (T3: 3h CP1-treated, Exp #1-5): 0.0004582 and 0.0004235 and 0.0007003 and 0.0006519 and 0.0004828
2-Hydroxyglutarate (NMR metabolite level) (T3: 3h CP1-treated, Exp #1-5): 0.01261 and 0.01491 and 0.01314 and 0.01427 and 0.01273
ATP (NMR metabolite level) (T3: 3h CP1-treated, Exp #1-5): 0.001497 and 0.001391 and 0.001868 and 0.001572 and 0.001599
Acetic acid (NMR metabolite level) (T3: 3h CP1-treated, Exp #1-5): 0.004551 and 0.004658 and 0.004836 and 0.004678 and 0.004285
Choline (NMR metabolite level) (T3: 3h CP1-treated, Exp #1-5): 0.0005498 and 0.0005142 and 0.0005336 and 0.0006902 and 0.0006337
Creatine (NMR metabolite level) (T3: 3h CP1-treated, Exp #1-5): 0.00675 and 0.006504 and 0.00667 and 0.008321 and 0.006277
D-Glucose (NMR metabolite level) (T3: 3h CP1-treated, Exp #1-5): 0.1212 and 0.1286 and 0.1124 and 0.1017 and 0.1229
Dimethylamine (NMR metabolite level) (T3: 3h CP1-treated, Exp #1-5): 0.03604 and 0.03364 and 0.02538 and 0.0283 and 0.03615
Formic acid (NMR metabolite level) (T3: 3h CP1-treated, Exp #1-5): 0.001497 and 0.001482 and 0.001868 and 0.001994 and 0.001569
Fumaric acid (NMR metabolite level) (T3: 3h CP1-treated, Exp #1-5): 0.0003054 and 0.0002722 and 0.0003001 and 0.0003451 and 0.0003319
Glutathione (NMR metabolite level) (T3: 3h CP1-treated, Exp #1-5): 0.01109 and 0.01041 and 0.01101 and 0.01265 and 0.01144
Glycerol 3-phosphate (NMR metabolite level) (T3: 3h CP1-treated, Exp #1-5): 0.005205 and 0.004086 and 0.005958 and 0.005982 and 0.004016
Glycine (NMR metabolite level) (T3: 3h CP1-treated, Exp #1-5): 0.01387 and 0.01388 and 0.01587 and 0.01515 and 0.01301
Histidine (NMR metabolite level) (T3: 3h CP1-treated, Exp #1-5): 0.001863 and 0.001573 and 0.001667 and 0.001611 and 0.00166
L-Alanine (NMR metabolite level) (T3: 3h CP1-treated, Exp #1-5): 0.003726 and 0.003932 and 0.003735 and 0.003681 and 0.003651
L-Arginine (NMR metabolite level) (T3: 3h CP1-treated, Exp #1-5): 0.003085 and 0.0036 and 0.003035 and 0.003183 and 0.004798
L-Aspartic acid (NMR metabolite level) (T3: 3h CP1-treated, Exp #1-5): 0.006078 and 0.006201 and 0.007304 and 0.006941 and 0.006337
L-Glutamic acid (NMR metabolite level) (T3: 3h CP1-treated, Exp #1-5): 0.03955 and 0.04114 and 0.04112 and 0.04632 and 0.04125
L-Glutamine (NMR metabolite level) (T3: 3h CP1-treated, Exp #1-5): 0.1032 and 0.09634 and 0.112 and 0.1011 and 0.1019
L-Isoleucine (NMR metabolite level) (T3: 3h CP1-treated, Exp #1-5): 0.008064 and 0.008046 and 0.007837 and 0.007708 and 0.008178
L-Lactic acid (NMR metabolite level) (T3: 3h CP1-treated, Exp #1-5): 0.03287 and 0.03079 and 0.03432 and 0.03474 and 0.0328
L-Leucine (NMR metabolite level) (T3: 3h CP1-treated, Exp #1-5): 0.008094 and 0.008077 and 0.008637 and 0.008321 and 0.007846
L-Lysine (NMR metabolite level) (T3: 3h CP1-treated, Exp #1-5): 0.005651 and 0.005687 and 0.005569 and 0.005062 and 0.005432
L-Methionine (NMR metabolite level) (T3: 3h CP1-treated, Exp #1-5): 0.002474 and 0.002571 and 0.002635 and 0.002454 and 0.002656
L-Phenylalanine (NMR metabolite level) (T3: 3h CP1-treated, Exp #1-5): 0.004704 and 0.004749 and 0.004702 and 0.00464 and 0.004708
L-Threonine (NMR metabolite level) (T3: 3h CP1-treated, Exp #1-5): 0.0135 and 0.01422 and 0.01357 and 0.01411 and 0.01304
L-Tyrosine (NMR metabolite level) (T3: 3h CP1-treated, Exp #1-5): 0.004795 and 0.004537 and 0.004569 and 0.004755 and 0.004798
L-Valine (NMR metabolite level) (T3: 3h CP1-treated, Exp #1-5): 0.007911 and 0.008379 and 0.00757 and 0.007631 and 0.008117
NAD+ (NMR metabolite level) (T3: 3h CP1-treated, Exp #1-5): 0.001405 and 0.001331 and 0.001634 and 0.001764 and 0.001509
Phosphocreatine (NMR metabolite level) (T3: 3h CP1-treated, Exp #1-5): 0.002352 and 0.00245 and 0.002668 and 0.002838 and 0.002474
Phosphorylcholine (NMR metabolite level) (T3: 3h CP1-treated, Exp #1-5): 0.007361 and 0.007078 and 0.008004 and 0.008743 and 0.00688
Pyroglutamate (NMR metabolite level) (T3: 3h CP1-treated, Exp #1-5): 0.007789 and 0.006927 and 0.008071 and 0.008015 and 0.007303
Pyruvate (NMR metabolite level) (T3: 3h CP1-treated, Exp #1-5): 0.004887 and 0.004931 and 0.004602 and 0.004755 and 0.004949
Serine (NMR metabolite level) (T3: 3h CP1-treated, Exp #1-5): 0.006414 and 0.007411 and 0.00707 and 0.007401 and 0.006729
Succinic acid (NMR metabolite level) (T3: 3h CP1-treated, Exp #1-5): 0.001344 and 0.001543 and 0.001501 and 0.001841 and 0.001207
Taurine (NMR metabolite level) (T3: 3h CP1-treated, Exp #1-5): 0.006506 and 0.007653 and 0.005636 and 0.009663 and 0.004858
Tryptophan (NMR metabolite level) (T3: 3h CP1-treated, Exp #1-5): 0.0008552 and 0.0007865 and 0.0009671 and 0.0008436 and 0.0007846
UDP-N-Acetylglucosamine (NMR metabolite level) (T3: 3h CP1-treated, Exp #1-5): 0.00171 and 0.001573 and 0.002001 and 0.002147 and 0.00178
UDP-glucose (NMR metabolite level) (T3: 3h CP1-treated, Exp #1-5): 0.0008858 and 0.0008772 and 0.001067 and 0.000997 and 0.0009053
myo-Inositol (NMR metabolite level) (T3: 3h CP1-treated, Exp #1-5): 0.01161 and 0.01092 and 0.01214 and 0.0158 and 0.01228
1-Methylnicotinamide (NMR metabolite level) (T24: 24h CP1-treated, Exp #1-5): 0.0006688 and 0.0007226 and 0.00078 and 0.0009117 and 0.0008029
2-Hydroxyglutarate (NMR metabolite level) (T24: 24h CP1-treated, Exp #1-5): 0.01123 and 0.01613 and 0.01677 and 0.01849 and 0.01776
ADP (NMR metabolite level) (T24: 24h CP1-treated, Exp #1-5): 0.0007644 and 0.000746 and 0.001198 and 0.0008611 and 0.0008531
ATP (NMR metabolite level) (T24: 24h CP1-treated, Exp #1-5): 0.0006449 and 0.0006294 and 0.0008357 and 0.0006838 and 0.0006775
Acetic acid (NMR metabolite level) (T24: 24h CP1-treated, Exp #1-5): 0.003416 and 0.003823 and 0.003426 and 0.003622 and 0.002835

Source: publication PMC9652372, “Glycolytic flux control by drugging phosphoglycolate phosphatase” (Nature Communications, 2022)
